From patent US20250108038A1 (priority 2023, published 2025)
Where “and” joins values, the source holds several entries; their conditions need not be identical. Identical values can stand only once.

Test system: Long Evans rats
Test: Behavioral satiety sequence (BSS)
Type: in vivo, Long Evans rat
Conditions: Compound I-19 0.3 mg/kg
Source text: The Behavioural Satiety Sequence (BSS) is a technique used to evaluate physiological satiety. It is based on the expression of a sequence of behaviors including eating, grooming, locomotor activity, followed by resting, which are typically observed in rodents post-ingestion (Halford et al, 1998, Pharmacology Biochemistry and Behaviour. 61(2): 159-168). The BSS is a widely used model for determining the effects of novel pharmaceuticals on food intake and measures of satiety in rodents (Oliveira et al, 2011, Revista de Nutrição. 24(4) 619-628), and to discriminate the cause of reduced food intake following pharmacological manipulation. For example, treatments that may reduce food intake by non-specific mechanisms, such as immobility, malaise, and taste adulteration, will disrupt this sequence (Halford et al, 1998, Pharmacology Biochemistry and Behaviour. 61(2): 159-168).
Specifically, 12 male Long-Evans rats were food-deprived for 22 h with a 2 h feeding period each day. Rats were trained to consume daily food during the 2 h period over 25 days. The testing phase was initiated once the rats consistently consumed 16-18 g of food per day with ≤10% variance in amount of feed consumed. Feeding took place in designated individual boxes in a quiet room separate from the housing room. Continuous remote monitoring via video camera during feeding was used to assess the BSS. Food consumption was measured by weighing the total available food before and after the 2 h feeding window, correcting for spillage. Lorcaserin (1 mg/kg) was included as a reference control (Higgins et al, 2011, Neuropsychopharmacology. 37(5): 1177-1191). Subjects were tested using a repeated-measures, Latin square design with 2-3 days wash-out between treatment cycles.
On scheduled test days, animals were monitored remotely via video camera during the feeding access period. The occurrence of four mutually exclusive behaviors (eating/drinking, grooming, active, rest) were individually scored. Over the 2 h feeding period, behaviors were assessed every 30 seconds. Scores were compiled into 23 5 min timebins (timebin 24 was removed due to early removal of animals) and the frequency of each behavior within each timebin was calculated to determine a temporal frequency of each measure (Rodgers et al, 2010, Pharmacology Biochemistry and Behaviour. 97: 3-14). Percentage time was plotted for each behavioral sequence in each timebin to compare between treatment groups (Higgins et al, 2011, Neuropsychopharmacology. 37(5): 1177-1191).

[1] = AVG of animals LT-1 to LT-12, 0-0.5 hours
[2] = raw data per animal LT-1 to LT-12, 0-0.5 hours
[3] = raw score per animal (LT-1 to LT-12)

Compound: Clc1ccc(C2(OCC3OCCO3)c3ccccc3C3=NCCN32)cc1 (stereo not drawn) [Compound I-19]
- BSS scoring G (grooming), Time Bin 19 (90-95 TOTAL), AVG (AVG of animals LT-1 to LT-12): 0.05
- BSS scoring G (grooming), Time Bin 20 (95-100 TOTAL), AVG (AVG of animals LT-1 to LT-12): 0.05
- BSS scoring G (grooming), Time Bin 21 (100-105 TOTAL), AVG (AVG of animals LT-1 to LT-12): 0.02
- BSS scoring G (grooming), Time Bin 22 (105-110 TOTAL), AVG (AVG of animals LT-1 to LT-12): 0.01
- BSS scoring G (grooming), Time Bin 23 (110-115 TOTAL), AVG (AVG of animals LT-1 to LT-12): 0.05
- BSS scoring G (grooming), Time Bin 24 (115-120 TOTAL), AVG (AVG of animals LT-1 to LT-12): 0.04
- BSS scoring R (resting), Time Bin 19 (90-95 TOTAL), AVG (AVG of animals LT-1 to LT-12): 0.11
- BSS scoring R (resting), Time Bin 20 (95-100 TOTAL), AVG (AVG of animals LT-1 to LT-12): 0.09
- BSS scoring R (resting), Time Bin 21 (100-105 TOTAL), AVG (AVG of animals LT-1 to LT-12): 0.19
- BSS scoring R (resting), Time Bin 22 (105-110 TOTAL), AVG (AVG of animals LT-1 to LT-12): 0.21
- BSS scoring R (resting), Time Bin 23 (110-115 TOTAL), AVG (AVG of animals LT-1 to LT-12): 0.16
- BSS scoring R (resting), Time Bin 24 (115-120 TOTAL), AVG (AVG of animals LT-1 to LT-12): 0.21
- BSS scoring A (active), Time Bin 1 (0-5 TOTAL), AVG [1]: 0.09
- BSS scoring A (active), Time Bin 2 (5-10 TOTAL), AVG [1]: 0.02
- BSS scoring A (active), Time Bin 3 (10-15 TOTAL), AVG [1]: 0.03
- BSS scoring A (active), Time Bin 4 (15-20 TOTAL), AVG [1]: 0.08
- BSS scoring A (active), Time Bin 5 (20-25 TOTAL), AVG [1]: 0.07
- BSS scoring A (active), Time Bin 6 (25-30 TOTAL), AVG [1]: 0.08
- BSS scoring E (eating/drinking), Time Bin 1 (0-5 TOTAL), AVG [1]: 0.88
- BSS scoring E (eating/drinking), Time Bin 2 (5-10 TOTAL), AVG [1]: 0.95
- BSS scoring E (eating/drinking), Time Bin 3 (10-15 TOTAL), AVG [1]: 0.94
- BSS scoring E (eating/drinking), Time Bin 4 (15-20 TOTAL), AVG [1]: 0.90
- BSS scoring E (eating/drinking), Time Bin 5 (20-25 TOTAL), AVG [1]: 0.88
- BSS scoring E (eating/drinking), Time Bin 6 (25-30 TOTAL), AVG [1]: 0.88
- BSS scoring G (grooming), Time Bin 1 (0-5 TOTAL), AVG [1]: 0.03
- BSS scoring G (grooming), Time Bin 2 (5-10 TOTAL), AVG [1]: 0.03
- BSS scoring G (grooming), Time Bin 3 (10-15 TOTAL), AVG [1]: 0.03
- BSS scoring G (grooming), Time Bin 4 (15-20 TOTAL), AVG [1]: 0.01
- BSS scoring G (grooming), Time Bin 5 (20-25 TOTAL), AVG [1]: 0.03
- BSS scoring G (grooming), Time Bin 6 (25-30 TOTAL), AVG [1]: 0.02
- BSS scoring R (resting), Time Bin 1 (0-5 TOTAL), AVG [1]: 0.01
- BSS scoring R (resting), Time Bin 2 (5-10 TOTAL), AVG [1]: 0.00
- BSS scoring R (resting), Time Bin 3 (10-15 TOTAL), AVG [1]: 0.00
- BSS scoring R (resting), Time Bin 4 (15-20 TOTAL), AVG [1]: 0.02
- BSS scoring R (resting), Time Bin 5 (20-25 TOTAL), AVG [1]: 0.03
- BSS scoring R (resting), Time Bin 6 (25-30 TOTAL), AVG [1]: 0.03
- BSS scoring A (active), Time Bin 1 (0-5 TOTAL) [2]: 1 (5×) and 0 (4×) and 2 (3×)
- BSS scoring A (active), Time Bin 2 (5-10 TOTAL) [2]: 0 (10×) and 1 (2×)
- BSS scoring A (active), Time Bin 3 (10-15 TOTAL) [2]: 0 (9×) and 2 and 1 (2×)
- BSS scoring A (active), Time Bin 4 (15-20 TOTAL) [2]: 0 (7×) and 1 (3×) and 2 and 4
- BSS scoring A (active), Time Bin 5 (20-25 TOTAL) [2]: 3 and 0 (7×) and 1 (3×) and 2
- BSS scoring A (active), Time Bin 6 (25-30 TOTAL) [2]: 1 (3×) and 0 (6×) and 2 (3×)
- BSS scoring E (eating/drinking), Time Bin 1 (0-5 TOTAL) [2]: 9 (6×) and 7 and 8 (3×) and 10 (2×)
- BSS scoring E (eating/drinking), Time Bin 2 (5-10 TOTAL) [2]: 9 (6×) and 10 (6×)
- BSS scoring E (eating/drinking), Time Bin 3 (10-15 TOTAL) [2]: 10 (6×) and 9 (5×) and 8
- BSS scoring E (eating/drinking), Time Bin 4 (15-20 TOTAL) [2]: 10 (4×) and 9 (6×) and 8 and 6
- BSS scoring E (eating/drinking), Time Bin 5 (20-25 TOTAL) [2]: 6 and 9 (6×) and 10 (3×) and 8 and 7
- BSS scoring E (eating/drinking), Time Bin 6 (25-30 TOTAL) [2]: 9 (2×) and 10 (5×) and 7 and 8 (3×) and 6
- BSS scoring G (grooming), Time Bin 1 (0-5 TOTAL) [2]: 0 (9×) and 1 (3×)
- BSS scoring G (grooming), Time Bin 2 (5-10 TOTAL) [2]: 1 (4×) and 0 (8×)
- BSS scoring G (grooming), Time Bin 3 (10-15 TOTAL) [2]: 0 (9×) and 1 (3×)
- BSS scoring G (grooming), Time Bin 4 (15-20 TOTAL) [2]: 0 (11×) and 1
- BSS scoring G (grooming), Time Bin 5 (20-25 TOTAL) [2]: 1 (4×) and 0 (8×)
- BSS scoring G (grooming), Time Bin 6 (25-30 TOTAL) [2]: 0 (10×) and 1 (2×)
- BSS scoring R (resting), Time Bin 1 (0-5 TOTAL) [2]: 0 (11×) and 1
- BSS scoring R (resting), Time Bin 2 (5-10 TOTAL) [2]: 0
- BSS scoring R (resting), Time Bin 3 (10-15 TOTAL) [2]: 0
- BSS scoring R (resting), Time Bin 4 (15-20 TOTAL) [2]: 0 (10×) and 1 (2×)
- BSS scoring R (resting), Time Bin 5 (20-25 TOTAL) [2]: 0 (10×) and 1 and 2
- BSS scoring R (resting), Time Bin 6 (25-30 TOTAL) [2]: 0 (10×) and 3 and 1
- BSS scoring A (active), Time Bin 19 (90-95 TOTAL) [3]: 0 (4×) and 5 (2×) and 2 (2×) and 6 and 3 and 1 (2×)
- BSS scoring A (active), Time Bin 20 (95-100 TOTAL) [3]: 3 (2×) and 2 (2×) and 0 (4×) and 1 (2×) and 4 (2×)
- BSS scoring A (active), Time Bin 21 (100-105 TOTAL) [3]: 0 (7×) and 1 (3×) and 2 (2×)
- BSS scoring A (active), Time Bin 22 (105-110 TOTAL) [3]: 0 (8×) and 4 and 1 and 2 (2×)
- BSS scoring A (active), Time Bin 23 (110-115 TOTAL) [3]: 4 (2×) and 3 and 1 and 0 (4×) and 6 (2×) and 2 and 7
- BSS scoring A (active), Time Bin 24 (115-120 TOTAL) [3]: 0 (6×) and 3 (2×) and 5 and 1 (2×) and 4
- BSS scoring E (eating/drinking), Time Bin 19 (90-95 TOTAL) [3]: 9 (5×) and 4 (2×) and 0 and 2 and 7 and 8 and 5
- BSS scoring E (eating/drinking), Time Bin 20 (95-100 TOTAL) [3]: 7 and 6 (2×) and 10 (3×) and 9 and 8 (2×) and 1 and 4 (2×)
- BSS scoring E (eating/drinking), Time Bin 21 (100-105 TOTAL) [3]: 10 (4×) and 9 (2×) and 6 and 7 and 0 and 8 and 5 and 4
- BSS scoring E (eating/drinking), Time Bin 22 (105-110 TOTAL) [3]: 10 (6×) and 0 (2×) and 3 and 7 and 8 and 5
- BSS scoring E (eating/drinking), Time Bin 23 (110-115 TOTAL) [3]: 5 (2×) and 6 and 9 (2×) and 1 (2×) and 4 (2×) and 0 and 8 and 10
- BSS scoring E (eating/drinking), Time Bin 24 (115-120 TOTAL) [3]: 0 (3×) and 6 (2×) and 10 and 4 (2×) and 2 and 8 (2×) and 5
- BSS scoring G (grooming), Time Bin 19 (90-95 TOTAL) [3]: 0 (8×) and 1 (3×) and 3
- BSS scoring G (grooming), Time Bin 20 (95-100 TOTAL) [3]: 0 (8×) and 1 (2×) and 2 (2×)
- BSS scoring G (grooming), Time Bin 21 (100-105 TOTAL) [3]: 0 (10×) and 1 (2×)
